This is an account of results in patent publication US9708639B2, “Method for quantifying amino acids with pyrophosphate” (TOYAMA PREFECTURE, priority 2012, dated 2017).

Holding throughout (experiment): Qualitative test of AARS substrate specificity (molybdenum blue method)
What all share (assay type): biochemical, Thermotoga maritima MSB8 strain
Common to all, as to design: key: +: Activity was detected; −: Activity was not detected

Experiment [1] concerns the target T1, Thermotoga-derived HisRS (Thermotoga maritima, UniProt Q9X0H5).
T1 construct: His tag (C); made in house; host or cells: Escherichia coli BL21 (DE3)
T1 sequence (Q9X0H5 1-420): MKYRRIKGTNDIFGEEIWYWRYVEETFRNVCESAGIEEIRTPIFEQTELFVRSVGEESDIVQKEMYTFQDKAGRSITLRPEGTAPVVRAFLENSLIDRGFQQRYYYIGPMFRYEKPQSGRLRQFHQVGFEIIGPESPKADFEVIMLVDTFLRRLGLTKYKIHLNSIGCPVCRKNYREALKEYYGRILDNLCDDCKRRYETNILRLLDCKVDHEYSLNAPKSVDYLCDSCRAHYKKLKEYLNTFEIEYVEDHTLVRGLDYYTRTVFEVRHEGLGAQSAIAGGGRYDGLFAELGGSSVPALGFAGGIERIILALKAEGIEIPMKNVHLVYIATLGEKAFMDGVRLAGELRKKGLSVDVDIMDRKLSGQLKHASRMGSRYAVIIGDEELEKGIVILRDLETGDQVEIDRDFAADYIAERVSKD
The note with it: Tyr 1 mM, other amino acids 5 mM; hydroxylamine 1000 mM; HisRS 0.1 mg/ml; 30° C. How it is done:
(§1) A test sample containing an amino acid as the measurement subject and a reaction mixture for quantifying amino acid having the following composition were mixed. The mixture was left standing at 30° C. to allow the AARS reaction to advance. The mixture in a volume of 33 μl, 66 μl of water, and 1 μl of a 300 U/ml yeast pyrophosphatase solution were mixed, and left standing at room temperature for 20 minutes to allow the pyrophosphatase reaction to advance. Then, the reaction mixture was mixed with 100 μl of a color development solution A and 30 μl of a color developing solution B having the following compositions, then the mixture was left standing at room temperature for 5 minutes, and the absorbance was measured at 700 nm or 900 nm with a microplate reader.
(§2) Reaction mixture for quantifying amino acid: 20 mM Tris-HCl (pH 7.0), 5 mM MgCl2, 2 mM ATP, and AARS (concentrations are final concentrations obtained after mixing with test sample)
(§3) Color developing solution A: A solution obtained by mixing water and concentrated sulfuric acid at a ratio of 3:1 and dissolving (NH4)6Mo7O24.4H2O in the mixture at a concentration of 0.066 g/ml
(§4) Color developing solution B: A solution obtained by mixing water and concentrated sulfuric acid at a ratio of 10000:7 and dissolving FeSO4.7H2O in the mixture at a concentration of 145 mg/ml
(§5) Presence or absence of pyrophosphate generation was verified for the Thermotoga-derived CysRS, HisRS, LysRS, ProRS, SerRS, TrpRS, and TyrRS by using the AARS activity measurement method described in 9. and standard solutions of the various amino acids as test samples. AARSs were added to the reaction mixture at final concentrations of 0.3 (8 mU/ml), 0.1, 0.2 (3 mU/ml), 0.2, 0.1 (1 mU/ml), 0.1, 0.2 (20 mU/ml) mg/ml, respectively. The reaction mixtures were prepared so that the final concentration of Tyr was 1 mM, and the final concentrations of the other amino acids were 5 mM. As for the hydroxylamine concentration, it was added at a final concentration of 1000 mM for all the cases. Further, presence or absence of pyrophosphate production was also verified for the Thermus-derived MetRS and TyrRS by using the AARS activity measurement method described in 10. and standard solutions of the various amino acids as test samples. The reaction mixtures were prepared so that the final concentrations of the amino acids were 200 μM. Hydroxylamine was added at a final concentration of 400 mM.
(§6) Detection or no detection of the activity in the reaction mixtures containing a combination of each AARS and amino acid are shown in Table 2. The symbol + indicates detection of the activity, and − indicates no detection of the activity.

Experiment [2] deals with T2, Thermotoga-derived ProRS (Thermotoga maritima, UniProt Q9WYY4).
T2 construct: His tag (C); made in house; host or cells: Escherichia coli BL21 (DE3)
T2 sequence (Q9WYY4 1-577): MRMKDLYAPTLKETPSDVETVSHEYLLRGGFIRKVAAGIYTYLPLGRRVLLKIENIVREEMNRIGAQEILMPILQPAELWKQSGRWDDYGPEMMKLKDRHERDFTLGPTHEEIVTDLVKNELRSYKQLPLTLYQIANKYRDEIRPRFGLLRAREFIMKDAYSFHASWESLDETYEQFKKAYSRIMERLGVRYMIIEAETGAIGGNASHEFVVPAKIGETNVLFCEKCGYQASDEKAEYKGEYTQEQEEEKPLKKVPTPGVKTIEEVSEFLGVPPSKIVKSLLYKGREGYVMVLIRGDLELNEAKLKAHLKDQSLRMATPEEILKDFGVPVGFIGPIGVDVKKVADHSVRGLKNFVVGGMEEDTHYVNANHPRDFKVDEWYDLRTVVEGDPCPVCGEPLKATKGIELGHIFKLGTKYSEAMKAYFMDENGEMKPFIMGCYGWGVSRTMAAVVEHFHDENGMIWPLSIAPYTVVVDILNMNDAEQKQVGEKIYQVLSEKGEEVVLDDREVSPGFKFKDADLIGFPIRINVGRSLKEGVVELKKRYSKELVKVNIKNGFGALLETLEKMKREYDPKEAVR
The conditions noted are these: Tyr 1 mM, other amino acids 5 mM; hydroxylamine 1000 mM; ProRS 0.2 mg/ml; 30° C. The protocol:
as §1, §2, §3, §4, §5, §6

The target in experiment [3] is T3, Thermotoga-derived TyrRS (Thermotoga maritima, UniProt Q9WYU8).
T3 construct: The amplification products were each inserted into pET-28a to obtain plasmids for expression of respective AARSs; His tag (N); made in house; host or cells: Escherichia coli BL21 (DE3)
T3 sequence (Q9WYU8 1-401): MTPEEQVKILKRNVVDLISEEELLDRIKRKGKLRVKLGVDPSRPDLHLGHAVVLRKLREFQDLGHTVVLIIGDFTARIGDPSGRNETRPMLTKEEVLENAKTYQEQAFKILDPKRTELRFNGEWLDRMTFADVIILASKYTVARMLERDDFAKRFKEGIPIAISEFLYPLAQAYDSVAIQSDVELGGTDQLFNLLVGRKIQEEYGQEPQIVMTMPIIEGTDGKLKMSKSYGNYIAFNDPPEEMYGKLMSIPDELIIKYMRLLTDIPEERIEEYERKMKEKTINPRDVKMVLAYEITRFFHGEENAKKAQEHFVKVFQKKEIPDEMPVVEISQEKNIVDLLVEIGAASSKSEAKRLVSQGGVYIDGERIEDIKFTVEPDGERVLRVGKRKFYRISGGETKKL
The note with it: Tyr 1 mM, other amino acids 5 mM; hydroxylamine 1000 mM; TyrRS 0.2 mg/ml (20 mU/ml); 30° C. The protocol:
as §1, §2, §3, §4, §5, §6

As to `N[C@@H](Cc1c[nH]cn1)C(=O)O` [His, L-histidine], in experiment [1], the “Detection of the activity (pyrophosphate generation), HisRS” value (from here on “Detection of the activity … HisRS”) was “+”. Besides, the “Detection of the activity (pyrophosphate generation), ProRS” value (shortened to “Detection of the activity … ProRS”) in experiment [2] is “−”. For the same molecule, the “Detection of the activity (pyrophosphate generation), TyrRS (Thermotoga)” value (“Detection of the activity … (Thermotoga)” below) in experiment [3] is “−”.

On to `NC(=O)C[C@H](N)C(=O)O` [Asn, L-asparagine], for which the “Detection of the activity … HisRS” value in experiment [1] is recorded as “−”. The “Detection of the activity … ProRS” value in experiment [2] is on record as “−”. Also, in experiment [3], the “Detection of the activity … (Thermotoga)” value is listed as “−”.

As for `N=C(N)NCCC[C@H](N)C(=O)O` [Arg, L-arginine], the “Detection of the activity … HisRS” value in experiment [1] is on record as “−”. The “Detection of the activity … ProRS” value in experiment [2] is “−”. Further, in experiment [3], the “Detection of the activity … (Thermotoga)” value is “−”.

On to `NC(=O)CC[C@H](N)C(=O)O` [Gln, L-glutamine], for which the “Detection of the activity … HisRS” value in experiment [1] is listed as “−”. In addition, the “Detection of the activity … ProRS” value in experiment [2] is recorded as “−”. Moreover, the “Detection of the activity … (Thermotoga)” value in experiment [3] was “−”.

In the case of `C[C@H](N)C(=O)O` [Ala, L-alanine], in experiment [1], the “Detection of the activity … HisRS” value is “−”. Further, in experiment [2], the “Detection of the activity … ProRS” value is given as “−”. Besides, in experiment [3], the “Detection of the activity … (Thermotoga)” value is “−”.

As for `C[C@@H](O)[C@H](N)C(=O)O` [Thr, L-threonine], the “Detection of the activity … HisRS” value in experiment [1] is “−”. The “Detection of the activity … ProRS” value in experiment [2] is listed as “−”. The “Detection of the activity … (Thermotoga)” value in experiment [3] is “−”.

Consider `NCCCC[C@H](N)C(=O)O` [Lys, L-lysine], for which, in experiment [1], the “Detection of the activity … HisRS” value is on record as “−”. Further, the “Detection of the activity … ProRS” value in experiment [2] is “−”. In experiment [3], the “Detection of the activity … (Thermotoga)” value is listed as “−”.

Turning to `N[C@@H](Cc1ccccc1)C(=O)O` [Phe, L-phenylalanine], the “Detection of the activity … HisRS” value in experiment [1] is “−”. The “Detection of the activity … ProRS” value in experiment [2] is given as “−”. Moreover, the “Detection of the activity … (Thermotoga)” value in experiment [3] was “−”.

As for `CC(C)C[C@H](N)C(=O)O` [Leu, L-leucine], in experiment [1], the “Detection of the activity … HisRS” value is reported as “−”. Besides, the “Detection of the activity … ProRS” value in experiment [2] was “−”. In addition, in experiment [3], the “Detection of the activity … (Thermotoga)” value is “−”.

In the case of `N[C@@H](Cc1ccc(O)cc1)C(=O)O` [Tyr, L-tyrosine], the “Detection of the activity … HisRS” value in experiment [1] is “−”. In addition, in experiment [2], the “Detection of the activity … ProRS” value is on record as “−”. Also, in experiment [3], the “Detection of the activity … (Thermotoga)” value is recorded as “+”.

In the case of `CSCC[C@H](N)C(=O)O` [Met, L-methionine], the “Detection of the activity … HisRS” value in experiment [1] is “−”. Besides, in experiment [2], the “Detection of the activity … ProRS” value was “−”. Moreover, the “Detection of the activity … (Thermotoga)” value in experiment [3] was “−”.

As for `N[C@@H](CO)C(=O)O` [Ser, L-serine], the “Detection of the activity … HisRS” value in experiment [1] was “−”. In addition, the “Detection of the activity … ProRS” value in experiment [2] is recorded as “−”. The “Detection of the activity … (Thermotoga)” value in experiment [3] is listed as “−”.

For `N[C@@H](CCC(=O)O)C(=O)O` [Glu, L-glutamic acid], the “Detection of the activity … HisRS” value in experiment [1] is “−”. Further, in experiment [2], the “Detection of the activity … ProRS” value is reported as “−”. In addition, in experiment [3], the “Detection of the activity … (Thermotoga)” value is “−”.

For the molecule `O=C(O)[C@@H]1CCCN1` [Pro, L-proline], the “Detection of the activity … HisRS” value in experiment [1] was “−”. Moreover, in experiment [2], the “Detection of the activity … ProRS” value was “+”. Also, the “Detection of the activity … (Thermotoga)” value in experiment [3] is “−”.

Take `CC[C@H](C)[C@H](N)C(=O)O` [Ile, L-isoleucine]: the “Detection of the activity … HisRS” value in experiment [1] was “−”. Moreover, the “Detection of the activity … ProRS” value in experiment [2] is on record as “−”. Moreover, the “Detection of the activity … (Thermotoga)” value in experiment [3] was “−”.

With `N[C@@H](Cc1c[nH]c2ccccc12)C(=O)O` [Trp, L-tryptophan], the “Detection of the activity … HisRS” value in experiment [1] is “−”. The “Detection of the activity … ProRS” value in experiment [2] is recorded as “−”. For the same molecule, in experiment [3], the “Detection of the activity … (Thermotoga)” value is “−”.

Take `NCC(=O)O` [Gly, glycine]: in experiment [1], the “Detection of the activity … HisRS” value is listed as “−”. Besides, the “Detection of the activity … ProRS” value in experiment [2] was “−”. The “Detection of the activity … (Thermotoga)” value in experiment [3] is on record as “−”.

`CC(C)[C@H](N)C(=O)O` [Val, L-valine]: the “Detection of the activity … HisRS” value in experiment [1] was “−”. Further, the “Detection of the activity … ProRS” value in experiment [2] is “−”. Also, the “Detection of the activity … (Thermotoga)” value in experiment [3] was “−”.

As to `N[C@@H](CS)C(=O)O` [Cys, L-cysteine], in experiment [1], the “Detection of the activity … HisRS” value is listed as “−”. Further, the “Detection of the activity … ProRS” value in experiment [2] is on record as “−”. The “Detection of the activity … (Thermotoga)” value in experiment [3] was “−”.

With `N[C@@H](CC(=O)O)C(=O)O` [Asp, L-aspartic acid], the “Detection of the activity … HisRS” value in experiment [1] is “−”. Further, in experiment [2], the “Detection of the activity … ProRS” value is on record as “−”. For the same molecule, the “Detection of the activity … (Thermotoga)” value in experiment [3] is given as “−”.
